{
  "source": "patent US20130172244A1",
  "about": "“SUBCUTANEOUS THERAPEUTIC USE OF DPP-4 INHIBITOR” (priority 2011, published 2013)",
  "key": {"[1]": {"tested_on": "rats fed a high-fat diet (diet induced obesity)", "assay": "Chronic treatment in non-diabetic model of diet induced obesity: body weight, total body fat, liver fat, intramyocellular fat (MRS)", "assay_type": "in vivo", "settings": "6 weeks, linagliptin 10 mg/kg, sibutramine 5 mg/kg; for Body weight % baseli. / Intra-myocellular fat % baseli. / Liver fat % baseli. / Total body fat % baseli.: versus baseline; for Body weight % contr. / Intra-myocellular fat % contr. / Liver fat % contr. / Total body fat % contr.: versus control; for Intra-myocellular fat % baseli. / Liver fat % baseli. / Total body fat % baseli. / Intra-myocellular fat % contr. / Liver fat % contr. / Total body fat % contr.: MRS", "protocol": "Magnetic resonance spectroscopy (MRS) analysis of total body fat, muscle fat, and liver fat is performed before treatment and at the end of the study."}, "[2]": {"assay": "Safety and tolerability in people with type 2 diabetes"}, "[3]": {"tested_on": "normal-weight male Sprague-Dawley rats", "assay": "Acute s.c. dosing, nocturnal food intake in normal-weight rats", "assay_type": "in vivo", "settings": "linagliptin 0.1-0.5 mg/kg, GLP-1 0.2-0.4 mg/kg", "protocol": "(§1) However, it is not known whether DPP-IV inhibition in conjunction with glucagon-like peptide (GLP)-1 administration would influence body weight.\n(§2) Materials and methods: Normal-weight and DIO male Sprague-Dawley rats were used for acute and chronic dosing experiments, respectively. All rats were stratified to treatment groups according to individual body weight and whole-body fat mass. Linagliptin+GLP-1 combination treatment was evaluated in both acute and chronic treatment settings and compared with monotherapy and vehicle controls. […] For comparison, DIO rats were exposed to 28 days of liraglutide monotherapy. All drugs were administered twice daily subcutaneously (s.c.). […] In comparison, chronic liraglutide (0.2 mg/kg) treatment evoked a long-lasting hypophagic response with a weight loss of −10.8±0.5% and 12.2±0.6% at day 14 and 28, respectively."}, "[4]": {"assay": "2 h postprandial blood glucose excursions in patients with type 2 diabetes", "assay_type": "in vivo, human", "settings": "Day 1; oral doses ≧2.5 mg"}, "[5]": {"tested_on": "non-obese-diabetic (NOD) mice", "assay": "Onset of diabetes and beta-cell mass in non-obese-diabetic (NOD) mice", "assay_type": "in vivo", "settings": "female NOD mice", "text": "Though reduced pancreatic T-cell migration and altered cytokine production is considered important players for the onset of insulinitis the exact mechanism and effects on the pancreatic cell pool is still incompletely understood.\nBi-weekly plasma samples are obtained to determine onset of diabetes (BG>11 mmol/l)."}, "clinical": {"assay": "clinical", "settings": "human, urine, po"}, "[6]": {"tested_on": "DIO male Sprague-Dawley rats", "assay": "Chronic s.c. dosing, body weight and food intake in diet-induced obese (DIO) rats", "assay_type": "in vivo", "settings": "DIO rat, s.c. twice daily", "protocol": "as §1, §2"}, "RIP-B7.1 tg mice": {"tested_on": "RIP-B7.1 tg mice", "assay": "Diabetes development in RIP-B7.1 transgenic mice after proinsulin/insulin A-chain plasmid vaccination", "assay_type": "in vivo", "text": "Dipeptidyl peptidase (DPP)-4 inhibitors block incretin degradation by DPP-4. […] As in humans, diabetes development in this model critically depends on activated CD8 T cells. Diabetes develops in RIP-B7.1 tg mice after a single intramuscular (i.m.) vaccination (vac) of proinsulin (PI) plasmid DNA.\nVac A: Diabetes is induced using a PI-encoding plasmid resulting in an aggressive insulitis. Vac B: vac with insulin A-chain encoding plasmid results in a delayed diabetes development compared to vac A. With vac A (n=20 tg mice), diabetes incidence is 80% 5 weeks after vac, whereas vac B (n=34) results in 79% incidence after 12 wks in placebotreated mice."}, "[7]": {"assay": "Pharmacokinetics of BI 1356 in patients with type 2 diabetes, multiple oral doses once daily for 12 days"}, "[8]": {"settings": "2.5 mg oral once daily, steady state (Day 12), gMean (gCV)"}, "[9]": {"settings": "10 mg oral once daily, steady state (Day 12), gMean (gCV)"}},
  "note": "Ends that are not written are not given here.",
  "data": [
    {"compound": "CC(C)CC(N(C)C)C1(c2ccc(Cl)cc2)CCC1", "note": "(stereo not drawn) [Sibutramine, reference compound]", "values": [
      {"measurement": "Body weight % baseli.", "setting": "[1]", "result": "+1%"},
      {"measurement": "Body weight % contr.", "setting": "[1]", "result": "−12", "unit": "%"},
      {"measurement": "Intra-myocellular fat % baseli.", "setting": "[1]", "result": "−34", "unit": "%"},
      {"measurement": "Liver fat % baseli.", "setting": "[1]", "result": "−29", "unit": "%"},
      {"measurement": "Total body fat % baseli.", "setting": "[1]", "result": "−0.4", "unit": "%"},
      {"measurement": "Intra-myocellular fat % baseli.", "setting": "[1]; listed as sibutramine", "result": "−34", "unit": "%"},
      {"measurement": "Intra-myocellular fat % contr.", "setting": "[1]", "result": "−55", "unit": "%"},
      {"measurement": "Liver fat % contr.", "setting": "[1]", "result": "−30", "unit": "%"},
      {"measurement": "Total body fat % contr.", "setting": "[1]", "result": "−12", "unit": "%"},
      {"measurement": "Liver fat % contr.", "setting": "[1]; listed as sibutramine", "result": "−30", "unit": "%"},
      {"measurement": "Total body fat % contr.", "setting": "[1]; listed as sibutramine", "result": "−12", "unit": "%"}
    ]},
    {"compound": "CC#CCn1c(N2CCC[C@@H](N)C2)nc2c1c(=O)n(Cc1nc(C)c3ccccc3n1)c(=O)n2C", "note": "[linagliptin]", "values": [
      {"measurement": "safety and tolerability", "setting": "[2]", "result": "placebo-like safety and tolerability"},
      {"measurement": "effect on nocturnal food intake", "setting": "[3]", "result": "no effect"},
      {"measurement": "decrease in 2 h postprandial blood glucose excursions", "setting": "[4]", "result": "≥ 80", "unit": "%"},
      {"measurement": "incidence of diabetes (BG>11 mmol/l) at the end of the study period", "setting": "[5]; 60 days, diet with 0.083 g linagliptin/kg chow (3-10 mg/kg p.o.), control 18 of 30", "result": "9 out of 30"},
      {"measurement": "beta cell mass (insulin immunoreactivity, stereology)", "setting": "[5]; 60 days, linagliptin in diet, vehicle 0.18±0.03", "result": "0.48±0.09", "unit": "mg"},
      {"measurement": "total islet mass", "setting": "[5]; 60 days, linagliptin in diet, vehicle 0.40±0.04", "result": "0.70 ± 0.09", "unit": "mg"},
      {"measurement": "peri-islet infiltrating lymphocytes", "setting": "[5]; 60 days, linagliptin in diet, vehicle 1.06±0.15", "result": "0.79 ± 0.12", "unit": "mg"},
      {"measurement": "active plasma GLP-1 at termination", "setting": "[5]; versus control", "result": "higher"},
      {"measurement": "CL renal", "setting": "clinical", "result": "14 to 70", "unit": "mL/min"},
      {"measurement": "CL renal", "setting": "clinical; 5 mg", "result": "~70", "unit": "mL/min"},
      {"measurement": "effect of 14 days of monotherapy", "setting": "[6]", "result": "no effect"},
      {"measurement": "Serum levels of the regulatory cytokine IL-10", "setting": "RIP-B7.1 tg mice; linagliptin 3 mg/kg/day oral", "result": "significantly upregulated"},
      {"measurement": "islet insulin content after diabetes onset", "setting": "RIP-B7.1 tg mice; linagliptin 3 mg/kg/day oral", "result": "partially preserved"},
      {"measurement": "number of islet antigen-specific CD8 T cells expressing IFN-γ (FACS and ELISPOT)", "setting": "RIP-B7.1 tg mice; linagliptin 3 mg/kg/day oral versus placebo", "result": "equal number"},
      {"measurement": "diabetes incidence", "setting": "RIP-B7.1 tg mice; vac A (PI-encoding plasmid), after wk 8 of follow-up, linagliptin 3 mg/kg/day oral, placebo 80% at 5 wks", "result": 80, "unit": "%"},
      {"measurement": "diabetes incidence", "setting": "RIP-B7.1 tg mice; vac B (insulin A-chain plasmid), during 14 wks follow up, linagliptin 3 mg/kg/day oral, control 92% wk 14", "result": "≤ 62", "unit": "%"},
      {"measurement": "Body weight % baseli.", "setting": "[1]", "result": "+12%"},
      {"measurement": "Body weight % contr.", "setting": "[1]", "result": "−3", "unit": "%"},
      {"measurement": "Body weight % contr.", "setting": "[1]; listed as Linagliptin", "result": "−3", "unit": "%"},
      {"measurement": "Intra-myocellular fat % baseli.", "setting": "[1]", "result": "−24", "unit": "%"},
      {"measurement": "Liver fat % baseli.", "setting": "[1]", "result": "−30", "unit": "%"},
      {"measurement": "Total body fat % baseli.", "setting": "[1]", "result": "+5%"},
      {"measurement": "Intra-myocellular fat % baseli.", "setting": "[1]; listed as Linagliptin", "result": "−24", "unit": "%"},
      {"measurement": "Intra-myocellular fat % contr.", "setting": "[1]", "result": "−36", "unit": "%"},
      {"measurement": "Liver fat % contr.", "setting": "[1]", "result": "−39", "unit": "%"},
      {"measurement": "Total body fat % contr.", "setting": "[1]", "result": "−5", "unit": "%"},
      {"measurement": "Liver fat % contr.", "setting": "[1]; listed as Linagliptin", "result": "−39", "unit": "%"},
      {"measurement": "Total body fat % contr.", "setting": "[1]; listed as Linagliptin", "result": "−5", "unit": "%"},
      {"measurement": "feT,ss", "setting": "[7]; 1 mg oral once daily, steady state (Day 12), gMean (gCV)", "result": "3.34 (38.3) %"},
      {"measurement": "fe0-24", "setting": "[7]; 2.5 mg oral once daily for 12 days, gMean (gCV)", "result": "0.139 (51.2) %"},
      {"measurement": "AUCT,ss", "setting": "[7]; [8]", "result": "117 (16.3) nmol · h/L"},
      {"measurement": "feT,ss", "setting": "[7]; [8]", "result": "3.06 (45.1) %"},
      {"measurement": "fe0-24", "setting": "[7]; 5 mg oral once daily for 12 days, gMean (gCV)", "result": "0.453 (125) %"},
      {"measurement": "feT,ss", "setting": "[7]; 5 mg oral once daily, steady state (Day 12), gMean (gCV)", "result": "6.27 (42.2) %"},
      {"measurement": "fe0-24", "setting": "[7]; 10 mg oral once daily for 12 days, gMean (gCV)", "result": "0.919 (115) %"},
      {"measurement": "T1/2,ss", "setting": "[7]; [9]", "result": "130 (11.7) h"},
      {"measurement": "feT,ss", "setting": "[7]; [9]", "result": "3.22 (34.2) %"},
      {"measurement": "form and path of excretion", "setting": "[7]; human, in vivo", "result": "primarily excreted unchanged via the bile"},
      {"measurement": "mean accumulation ratio RA,AUC", "setting": "[7]; oral doses above 1 mg once daily", "result": "≤ 1.4"},
      {"measurement": "fraction excreted via the kidney", "setting": "[7]; therapeutic oral dose levels", "result": "< 7 % of the administered oral dose"},
      {"measurement": "main route of excretion", "setting": "[7]; therapeutic oral dose levels", "result": "mainly excreted via the liver"}
    ]},
    {"compound": "GLP-1: native glucagon-like peptide (GLP)-1 (7-36) (HAEGTFTSDVSSYLEGQAAKEFIAWLVKGR; ends and bridges not checked; UniProt P01275 98-127, looked up)", "values": [
      {"measurement": "effect on nocturnal food intake", "setting": "[3]", "result": "rapid-onset suppression of food intake"},
      {"measurement": "effect of 14 days of monotherapy", "setting": "[6]", "result": "no effect"}
    ]}
  ]
}
